Test results published in the supplement of paper PMC10627819.

Legend:
S. aureus Newman [1] = test: fitness (endpoint OD595 vs no drug) (fraction); higher = more growth; settings: main component drawn
Method in brief: (§1)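 Fitness compares growth at the stationary-phase transition with the robust mean of no-drug control wells, as a ratio of optical densities. The ratio is capped at 1. Wells of 384-well plates held 30 µl, or 55 µl for S. pneumoniae, inoculated at OD595 0.01. Readings at OD595 every 30 min for 14 h at 37 °C were corrected against the first reading.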

S. aureus DSM 20231 [2] = test: as above
Method in brief: as §1

B. subtilis 168 [3] = test: Bliss interaction score (quartile over a dose matrix) (fitness difference); higher = more antagonism (negative = synergy)
Method in brief: (§2)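 The Bliss score is observed minus expected fitness, where expected fitness is the product of the single-drug fitness values inferred from the combination data. Fitness is the OD595 at the onset of stationary phase over the plate's robust no-drug mean, capped at 1. Scores are summarised by quartiles over technical, biological and donor/recipient replicates.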

S. pneumoniae D39V [4] = test: as above
Method in brief: as §2

S. aureus Newman [5] = test: as above
Method in brief: as §2

S. aureus DSM 20231 [6] = test: as above
Method in brief: as §2

B. subtilis 168 [7] = test: fitness (endpoint OD595 vs no drug) (fraction); higher = more growth
Method in brief: as §1

S. pneumoniae D39V [8] = test: as above
Method in brief: as §1
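Wherever Bliss interaction score (quartile over a dose matrix) is given: first quartile when negative (synergy) and third quartile when positive (antagonism).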
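Wherever fitness (endpoint OD595 vs no drug) is given: OD595 on entry to stationary phase over no-drug wells; at most 1.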

CO/N=C(\C(=O)N[C@@H]1C(=O)N2C(C(=O)O)=C(COC(C)=O)CS[C@H]12)c1csc(N)n1 [Cefotaxime] + CCCCCCCCCC(=O)N[C@@H]1[C@H]([C@@H]([C@H](O[C@H]1OC2=C3C=C4C=C2OC5=C(C=C(C=C5)[C@H]([C@H]6C(=O)N[C@@H](C7=C(C(=CC(=C7)O)OC8[C@H]([C@H]([C@@H]([C@H](O8)CO)O)O)O)C9=C(C=CC(=C9)[C@H](C(=O)N6)NC(=O)[C@@H]4NC(=O)[C@@H]1C2=CC(=CC(=C2)OC2=C(C=CC(=C2)[C@H](C(=O)N[C@H](CC2=CC(=C(O3)C=C2)Cl)C(=O)N1)N)O)O)O)C(=O)O)O[C@H]1[C@@H]([C@H]([C@@H]([C@H](O1)CO)O)O)NC(=O)C)Cl)CO)O)O [Teicoplanin]
fitness
Settings | partner 0.1562 µg/mL | partner 0.3125 µg/mL | partner 0.62 µg/mL | partner 0.625 µg/mL | partner 1.24 µg/mL | partner 2.48 µg/mL
S. aureus DSM 20231 [2], first compound 0.078 µg/mL, main component drawn | 0.791 | 0.828 | – | 0.826 | – | –
S. aureus DSM 20231 [2], first compound 0.156 µg/mL, main component drawn | 0.705 | 0.775 | – | 0.716 | – | –
S. aureus DSM 20231 [2], first compound 0.312 µg/mL, main component drawn | 0.667 | 0.665 | – | 0.663 | – | –
S. aureus Newman [1], first compound 0.039 µg/mL, one replicate | – | – | 0.563 | – | 0.614 | 0.405
S. aureus Newman [1], first compound 0.078 µg/mL, one replicate | – | – | 0.592 | – | 0.531 | 0.203
S. aureus Newman [1], first compound 0.156 µg/mL, one replicate | – | – | 0.459 | – | 0.487 | 0.094
S. aureus Newman [1], first compound 0.312 µg/mL, one replicate | – | – | 0.453 | – | 0.436 | 0.0757
S. aureus Newman [1], first compound 0.625 µg/mL, one replicate | 0.0055 | 0.0074 | – | 0.152 | – | –
S. aureus Newman [1], first compound 1.25 µg/mL, one replicate | 0.0152 | 0.0026 | – | 0.0074 | – | –
S. aureus Newman [1], first compound 2.5 µg/mL, one replicate | 0.0359 | 0.0126 | – | 0.0149 | – | –

fitness, S. aureus Newman [1]
Settings | first compound 0.078 µg/mL | first compound 0.156 µg/mL | first compound 0.312 µg/mL
partner 0.1562 µg/mL | 0.684 | 0.52 | 0.343
partner 0.3125 µg/mL | 0.672 | 0.498 | 0.356
partner 0.625 µg/mL | 0.574 | 0.46 | 0.315

S. aureus DSM 20231 [2], first compound 0.039 µg/mL, one replicate, main component drawn
Settings | fitness
partner 0.1562 µg/mL | 0.672
partner 0.3125 µg/mL | 0.754
partner 0.625 µg/mL | 0.786

main component drawn
Settings | Bliss interaction score
B. subtilis 168 [3] | -0.0867
S. aureus DSM 20231 [6] | -0.0684
S. aureus Newman [5] | -0.0611
S. pneumoniae D39V [4] | -0.0543

CO/N=C(\C(=O)N[C@@H]1C(=O)N2C(C(=O)O)=C(COC(C)=O)CS[C@H]12)c1csc(N)n1 [Cefotaxime] + CC(=O)NC[C@H]1CN(c2ccc(N3CCOCC3)c(F)c2)C(=O)O1 [Linezolid]
one replicate
Settings | fitness
B. subtilis 168 [7], first compound 0.00775 µg/mL, partner 0.125 µg/mL | 0.688
B. subtilis 168 [7], first compound 0.00775 µg/mL, partner 0.25 µg/mL | 0.141
B. subtilis 168 [7], first compound 0.00775 µg/mL, partner 0.5 µg/mL | 0.0663
B. subtilis 168 [7], first compound 0.0155 µg/mL, partner 0.125 µg/mL | 0.495
B. subtilis 168 [7], first compound 0.0155 µg/mL, partner 0.25 µg/mL | 0.0491
B. subtilis 168 [7], first compound 0.0155 µg/mL, partner 0.5 µg/mL | 0.0426
B. subtilis 168 [7], first compound 0.031 µg/mL, partner 0.125 µg/mL | 0.462
B. subtilis 168 [7], first compound 0.031 µg/mL, partner 0.25 µg/mL | 0.0621
B. subtilis 168 [7], first compound 0.031 µg/mL, partner 0.5 µg/mL | 0.0534
B. subtilis 168 [7], first compound 0.0625 µg/mL, partner 0.0625 µg/mL | 0.553
B. subtilis 168 [7], first compound 0.0625 µg/mL, partner 0.125 µg/mL | 0.327
B. subtilis 168 [7], first compound 0.0625 µg/mL, partner 0.25 µg/mL | 0.0561
B. subtilis 168 [7], first compound 0.125 µg/mL, partner 0.0625 µg/mL | 0.413
B. subtilis 168 [7], first compound 0.125 µg/mL, partner 0.125 µg/mL | 0.216
B. subtilis 168 [7], first compound 0.125 µg/mL, partner 0.25 µg/mL | 0.0505
B. subtilis 168 [7], first compound 0.25 µg/mL, partner 0.0625 µg/mL | 0.308
B. subtilis 168 [7], first compound 0.25 µg/mL, partner 0.125 µg/mL | 0.189
B. subtilis 168 [7], first compound 0.25 µg/mL, partner 0.25 µg/mL | 0.0533
S. aureus DSM 20231 [2], first compound 0.039 µg/mL, partner 1 µg/mL | 0.0567
S. aureus DSM 20231 [2], first compound 0.078 µg/mL, partner 1 µg/mL | 0.0664
S. aureus DSM 20231 [2], first compound 0.156 µg/mL, partner 1 µg/mL | 0.0626
S. aureus DSM 20231 [2], first compound 0.312 µg/mL, partner 0.125 µg/mL | 0.658
S. aureus DSM 20231 [2], first compound 0.312 µg/mL, partner 0.25 µg/mL | 0.545
S. aureus DSM 20231 [2], first compound 0.312 µg/mL, partner 0.5 µg/mL | 0.342

Settings | fitness
B. subtilis 168 [7], first compound 0.5 µg/mL, partner 0.125 µg/mL | 0.298
B. subtilis 168 [7], first compound 0.5 µg/mL, partner 0.25 µg/mL | 0.0555
B. subtilis 168 [7], first compound 0.5 µg/mL, partner 0.5 µg/mL | 0.0506
B. subtilis 168 [7], first compound 1 µg/mL, partner 0.125 µg/mL | 0.218
B. subtilis 168 [7], first compound 1 µg/mL, partner 0.25 µg/mL | 0.0513
B. subtilis 168 [7], first compound 1 µg/mL, partner 0.5 µg/mL | 0.0306
B. subtilis 168 [7], first compound 2 µg/mL, partner 0.125 µg/mL | 0.114
B. subtilis 168 [7], first compound 2 µg/mL, partner 0.25 µg/mL | 0.0572
B. subtilis 168 [7], first compound 2 µg/mL, partner 0.5 µg/mL | 0.0482
S. aureus DSM 20231 [2], first compound 0.039 µg/mL, partner 0.125 µg/mL | 0.737
S. aureus DSM 20231 [2], first compound 0.039 µg/mL, partner 0.25 µg/mL | 0.537
S. aureus DSM 20231 [2], first compound 0.039 µg/mL, partner 0.5 µg/mL | 0.194
S. aureus DSM 20231 [2], first compound 0.078 µg/mL, partner 0.125 µg/mL | 0.689
S. aureus DSM 20231 [2], first compound 0.078 µg/mL, partner 0.25 µg/mL | 0.57
S. aureus DSM 20231 [2], first compound 0.078 µg/mL, partner 0.5 µg/mL | 0.277
S. aureus DSM 20231 [2], first compound 0.156 µg/mL, partner 0.125 µg/mL | 0.745
S. aureus DSM 20231 [2], first compound 0.156 µg/mL, partner 0.25 µg/mL | 0.584
S. aureus DSM 20231 [2], first compound 0.156 µg/mL, partner 0.5 µg/mL | 0.297
S. pneumoniae D39V [8], first compound 0.0018 µg/mL, partner 0.105 µg/mL | 0.913
S. pneumoniae D39V [8], first compound 0.0018 µg/mL, partner 0.2 µg/mL | 0.642
S. pneumoniae D39V [8], first compound 0.0018 µg/mL, partner 0.21 µg/mL | 0.807
S. pneumoniae D39V [8], first compound 0.0018 µg/mL, partner 0.4 µg/mL | 0.633
S. pneumoniae D39V [8], first compound 0.0018 µg/mL, partner 0.42 µg/mL | 0.643
S. pneumoniae D39V [8], first compound 0.0018 µg/mL, partner 0.8 µg/mL | 0.238
S. pneumoniae D39V [8], first compound 0.0035 µg/mL, partner 0.105 µg/mL | 0.905
S. pneumoniae D39V [8], first compound 0.0035 µg/mL, partner 0.2 µg/mL | 0.604
S. pneumoniae D39V [8], first compound 0.0035 µg/mL, partner 0.21 µg/mL | 0.808
S. pneumoniae D39V [8], first compound 0.0035 µg/mL, partner 0.4 µg/mL | 0.615
S. pneumoniae D39V [8], first compound 0.0035 µg/mL, partner 0.42 µg/mL | 0.666
S. pneumoniae D39V [8], first compound 0.0035 µg/mL, partner 0.8 µg/mL | 0.217
S. pneumoniae D39V [8], first compound 0.007 µg/mL, partner 0.105 µg/mL | 0.797
S. pneumoniae D39V [8], first compound 0.007 µg/mL, partner 0.2 µg/mL | 0.597
S. pneumoniae D39V [8], first compound 0.007 µg/mL, partner 0.21 µg/mL | 0.693
S. pneumoniae D39V [8], first compound 0.007 µg/mL, partner 0.4 µg/mL | 0.58
S. pneumoniae D39V [8], first compound 0.007 µg/mL, partner 0.42 µg/mL | 0.445
S. pneumoniae D39V [8], first compound 0.007 µg/mL, partner 0.8 µg/mL | 0.173

Settings | Bliss interaction score
B. subtilis 168 [3] | 0.0544
S. aureus DSM 20231 [6] | 0.0531
S. aureus Newman [5] | -0.0569
S. pneumoniae D39V [4] | 0.157

COc1ccc(C[C@H](N)C(=O)N[C@H]2[C@@H](O)[C@H](n3cnc4c(N(C)C)ncnc43)O[C@@H]2CO)cc1 [Puromycin] + CCCCCCCCCC(=O)N[C@@H]1[C@H]([C@@H]([C@H](O[C@H]1OC2=C3C=C4C=C2OC5=C(C=C(C=C5)[C@H]([C@H]6C(=O)N[C@@H](C7=C(C(=CC(=C7)O)OC8[C@H]([C@H]([C@@H]([C@H](O8)CO)O)O)O)C9=C(C=CC(=C9)[C@H](C(=O)N6)NC(=O)[C@@H]4NC(=O)[C@@H]1C2=CC(=CC(=C2)OC2=C(C=CC(=C2)[C@H](C(=O)N[C@H](CC2=CC(=C(O3)C=C2)Cl)C(=O)N1)N)O)O)O)C(=O)O)O[C@H]1[C@@H]([C@H]([C@@H]([C@H](O1)CO)O)O)NC(=O)C)Cl)CO)O)O [Teicoplanin]
fitness, S. aureus Newman [1]
Settings | first compound 0.39 µg/mL | first compound 0.78 µg/mL | first compound 1.56 µg/mL
partner 0.1562 µg/mL | ≥ 1 | ≥ 1 | ≥ 1
partner 0.3125 µg/mL | ≥ 1 | ≥ 1 | ≥ 1
partner 0.625 µg/mL | ≥ 1 | 0.888 | 0.906

fitness
Settings | first compound 0.39 µg/mL | first compound 0.78 µg/mL | first compound 1.56 µg/mL
S. aureus DSM 20231 [2], partner 0.1562 µg/mL, main component drawn | 0.895 | 0.997 | 0.982
S. aureus DSM 20231 [2], partner 0.3125 µg/mL, main component drawn | ≥ 1 | ≥ 1 | 1
S. aureus DSM 20231 [2], partner 0.625 µg/mL, main component drawn | ≥ 1 | ≥ 1 | ≥ 1
S. aureus Newman [1], partner 0.62 µg/mL, one replicate | 0.761 | 0.815 | 0.79
S. aureus Newman [1], partner 1.24 µg/mL, one replicate | 0.754 | 0.755 | 0.76
S. aureus Newman [1], partner 2.48 µg/mL, one replicate | 0.457 | 0.454 | 0.403

fitness, S. aureus DSM 20231 [2], one replicate, main component drawn
Settings | partner 0.1562 µg/mL | partner 0.3125 µg/mL | partner 0.625 µg/mL
first compound 3.12 µg/mL | 0.94 | ≥ 1 | ≥ 1
first compound 6.24 µg/mL | 0.664 | 0.579 | 0.504

main component drawn
Settings | Bliss interaction score
B. subtilis 168 [3] | 0.0835
S. aureus DSM 20231 [6] | -0.0344
S. aureus Newman [5] | 0.0617
S. pneumoniae D39V [4] | 0.083
